Experiments:
[1] = system: Staphylococcus aureus; test: Antibacterial activity against Staphylococcus aureus at 19 ug/disk by standard filter disk assay; type: functional; settings: read-out: IZ
[2] = system: Artemia salina; test: Toxicity against Artemia salina; type: organism-based; settings: in vivo

SMILES: COc1c(C=O)cc(OC)c2c(OC)c3ccccc3cc12
- zone of inhibition at 19 µg/disc [1]: 12 mm
- LC50 [2]: > 280 ppm

SMILES: COCc1c(OC)cc2c(c1OC)C(=O)c1ccccc1C2=O
- LC50 [2]: > 280 ppm

Reference: ChEMBL document CHEMBL1146548, “New anthracene derivatives from Coussarea macrophylla” (J Nat Prod, 2003)
